In ChEMBL document CHEMBL5338807, “Design and Synthesis of Bouchardatine Derivatives as a Novel AMP-Activated Protein Kinase Activator for the Treatment of Colorectal Cancer” (J Med Chem, 2023) one finds IC50, Activity and inhibition data, which are given here for 52 molecules.

In general, IC50 refers to the point on the concentration scale where inhibition reaches its midpoint.

Calls of active or inactive are those of the source. No cut-off for these calls is given here. Bounds are passed on as bounds.

Holding throughout (assay type): functional, cell-based
For experiment [1], the system named is RKO. In words: Antiproliferative activity against human RKO cells assessed as reduction in cell viability incubated for 24 hrs.
In experiment [2] the test system is RKO. In words: Effect on energy metabolism in human RKO cells assessed as decrease in ATP production incubated for 24 hrs by luminescence based analysis.
The subject of experiment [3] is RKO. In words: Effect on metabolism in human RKO cells assessed as inhibition of oxidative phosphorylation at 50 mM measured after 24 hrs by seahorse analysis.
In experiment [4] the test system is RKO. In words: Antiproliferative activity against human RKO cells assessed as inhibition of colony formation at 1 uM measured after 7 days by crystal violet staining based assay. The conditions noted are these: time 7.0 day.
Experiment [5] has as its system RKO. In words: Inhibition of cell migration of human RKO cells at 1 uM incubated for 48 hrs by wound healing assay.
Experiment [6] has as its system RKO. In words: Effect on metabolism in human RKO cells assessed as activation of oxidative phosphorylation at 1 uM measured after 24 hrs by seahorse analysis.
For experiment [7], the system named is RKO. In words: Effect on metabolism in human RKO cells assessed as enhancement of oxidative phosphorylation at 2 mM measured after 24 hrs by seahorse analysis.
Experiment [8] concerns RKO. In words: Effect on energy metabolism in human RKO cells assessed as decrease in AMP level incubated for 24 hrs by luminescence based analysis.

In the case of `O=Cc1c(-c2nc(NCC(F)F)c3ccccc3n2)[nH]c2ccccc12`, the IC50 in experiment [1] came out at 7.9 µM.

On to `O=Cc1c(-c2nc(NCCCC(F)(F)F)c3ccccc3n2)[nH]c2ccccc12`, for which the IC50 in experiment [1] was 4.6 µM.

On to `Cc1c(-c2nc(NCCN3CCCCC3)c3ccccc3n2)[nH]c2ccccc12`, for which, in experiment [1], the IC50 is over 10 µM.

On to `O=Cc1c(-c2nc(NC3CC3)c3ccccc3n2)[nH]c2ccccc12`, for which the IC50 in experiment [1] amounted to 3.9 µM.

Take `O=Cc1c(-c2nc(NCC3CC3)c3ccccc3n2)[nH]c2ccccc12`: in experiment [1], the IC50 amounted to 4.8 µM.

Regarding `Cc1ccc2[nH]c(-c3nc(NCCN(C)C)c4ccccc4n3)c(C=O)c2c1`, the IC50 in experiment [1] was 0.7 µM.

As to `O=Cc1c(-c2nc(NCCN3CCCC3)c3ccccc3n2)[nH]c2ccccc12`, the IC50 in experiment [1] came out at 1.1 µM.

`CN(C)CCCNc1nc(-c2[nH]c3ccccc3c2C(=O)O)nc2ccccc12`: the IC50 in experiment [1] came out at 5.3 µM.

As for `CN(C)CCCN(CCCN(C)C)c1nc(-c2[nH]c3ccccc3c2C=O)nc2ccccc12`, the IC50 in experiment [1] came to 1.8 µM.

For the molecule `O=Cc1c(-c2nc(NCCCC(=O)N3CCCC3)c3ccccc3n2)[nH]c2ccccc12`, the IC50 in experiment [1] is 8.7 µM.

Turning to `Cc1c(-c2nc(N(C)CCCN(C)C)c3ccccc3n2)[nH]c2ccccc12`, the IC50 in experiment [1] is over 10 µM.

In the case of `CCC(=O)Nc1nc(-c2[nH]c3ccccc3c2C=O)nc2ccccc12`, the IC50 in experiment [1] was over 10 µM.

On to `O=Cc1c(-c2nc(NC(=O)c3cccnc3)c3ccccc3n2)[nH]c2ccccc12`, for which, in experiment [1], the IC50 is over 10 µM.

With `COc1ccc2[nH]c(-c3nc(NCCCN(C)C)c4ccccc4n3)c(C=O)c2c1`, the concentration for half-maximal inhibition (IC50) in experiment [1] worked out at 8.1 µM.

For `O=Cc1c(-c2nc(NCCN3CCCC3)c3ccccc3n2)[nH]c2ccc(Cl)cc12`, the IC50 in experiment [1] came to 2.5 µM.

Turning to `CN(C)C(=N)NC(=N)N`, the result in experiment [2] was Active. Also, the inhibition result in experiment [3] was “Active”.

As for `O=Cc1c(-c2nc(NC34CC5CC(CC(C5)C3)C4)c3ccccc3n2)[nH]c2ccccc12`, in experiment [1], the IC50 is over 10 µM.

Turning to `CCN1CCC[C@H]1CNc1nc(-c2[nH]c3ccccc3c2C=O)nc2ccccc12`, the inhibition result in experiment [4] and in experiment [5] was “Active” throughout. The IC50 in experiment [1] was found to be 0.9 µM. Further, the result in experiment [6] was Active.

Turning to `O=Cc1c(-c2nc3ccccc3c(=O)[nH]2)[nH]c2ccccc12`, the inhibition result in experiment [4] and in experiment [5] was “Active” throughout. The IC50 in experiment [1] is over 10 µM. The result in experiment [6] was Active.

As to `O=Cc1c(-c2nc(NCCN3CCCC3)c3ccccc3n2)[nH]c2ccc(F)cc12`, the IC50 in experiment [1] amounted to 2.1 µM.

Turning to `CN(C)CCCNc1nc(-c2[nH]c3ccc(Cl)cc3c2C=O)nc2ccccc12`, the IC50 in experiment [1] worked out at 4.1 µM.

For the molecule `CN(C)CCNc1nc(-c2[nH]c3ccc(Cl)cc3c2C=O)nc2ccccc12`, the IC50 in experiment [1] came to 5.3 µM.

Take `O=Cc1c(-c2nc(NCC3CCC3)c3ccccc3n2)[nH]c2ccccc12`: the IC50 in experiment [1] came out at 6.2 µM.

In the case of `Cc1ccc(CCNc2nc(-c3[nH]c4ccccc4c3C=O)nc3ccccc23)cc1`, the IC50 in experiment [1] worked out at 1.8 µM.

For the molecule `CCCC(=O)Nc1nc(-c2[nH]c3ccccc3c2C=O)nc2ccccc12`, the IC50 in experiment [1] is over 10 µM.

As to `CC(=O)c1c(-c2nc(NCCN3CCCCC3)c3ccccc3n2)[nH]c2ccccc12`, the IC50 in experiment [1] came to 9.5 µM.

For `CC(=O)c1c(-c2nc(NCCN(C)C)c3ccccc3n2)[nH]c2ccccc12`, the IC50 in experiment [1] is over 10 µM.

For `Cc1ccc2[nH]c(-c3nc(NCCN4CCCC4)c4ccccc4n3)c(C=O)c2c1`, the inhibition entry in experiment [4] and in experiment [5] was “Active” in each case. The IC50 in experiment [1] stood at 0.7 µM. In addition, the outcome in experiment [6] was Active.

As for `CN(C)CCNc1nc(-c2[nH]c3ccc(F)cc3c2C=O)nc2ccccc12`, the IC50 in experiment [1] amounted to 1.7 µM.

As to `Cc1c(-c2nc(NCCCN3CCN(C)CC3)c3ccccc3n2)[nH]c2ccccc12`, the IC50 in experiment [1] is over 10 µM.

As to `CN(C)CC(C)(C)CNc1nc(-c2[nH]c3ccccc3c2C=O)nc2ccccc12`, in experiment [1], the IC50 was 5.3 µM.

As to `O=Cc1c(-c2nc(Nc3ccc(N4CCCCC4)cc3)c3ccccc3n2)[nH]c2ccccc12`, the IC50 in experiment [1] was over 10 µM.

For `CC(C)(C)OC(=O)NCCCNc1nc(-c2[nH]c3ccccc3c2C=O)nc2ccccc12`, the IC50 in experiment [1] is 5.4 µM.

For the molecule `C=Cc1c(C)nc(-c2[nH]c3ccccc3c2C(C)=O)nc1NCCCN1CCCC1`, the IC50 in experiment [1] is over 10 µM.

With `COCCNc1nc(-c2[nH]c3ccccc3c2C=O)nc2ccccc12`, the IC50 in experiment [1] is 4.1 µM.

`O=Cc1c(-c2nc(NCCCC(=O)O)c3ccccc3n2)[nH]c2ccccc12`: in experiment [1], the IC50 is over 10 µM.

On to `Cc1ccc(S(=O)(=O)Nc2nc(-c3[nH]c4ccccc4c3C=O)nc3ccccc23)cc1`, for which, in experiment [1], the IC50 is over 10 µM.

On to `O=Cc1c(-c2nc(NCCNC(=O)C3CC3)c3ccccc3n2)[nH]c2ccccc12`, for which, in experiment [1], the IC50 was determined as 1.2 µM.

In the case of `CN(C)CCCNc1nc(-c2[nH]c3ccc(F)cc3c2C=O)nc2ccccc12`, the IC50 in experiment [1] was determined as 1.9 µM.

Regarding `Cc1ccc2[nH]c(-c3nc(NCCCN(C)C)c4ccccc4n3)c(C=O)c2c1`, the IC50 in experiment [1] amounted to 2 µM.

In the case of `CN(C)c1nc(-c2[nH]c3ccccc3c2C=O)nc2ccccc12`, the IC50 in experiment [1] was 4.8 µM.

With `O=Cc1c(-c2nc(NCCO)c3ccccc3n2)[nH]c2ccccc12`, the IC50 in experiment [1] was over 10 µM.

On to `NC(=O)c1ncn([C@@H]2O[C@H](CO)[C@@H](O)[C@H]2O)c1N`, for which the outcome in experiment [2], in experiment [7] and in experiment [8] was Active.

On to `COCCCNc1nc(-c2[nH]c3ccccc3c2C=O)nc2ccccc12`, for which, in experiment [1], the IC50 was determined as 1.1 µM.

As to `COc1ccc2[nH]c(-c3nc(NCCN4CCCC4)c4ccccc4n3)c(C=O)c2c1`, the IC50 in experiment [1] came to 1.6 µM.

`CCCS(=O)(=O)Nc1nc(-c2[nH]c3ccccc3c2C=O)nc2ccccc12`: the IC50 in experiment [1] was over 10 µM.

As for `CN(C)CCCNc1nc(-c2[nH]c3ccccc3c2C=O)nc2ccccc12`, the inhibition entry in experiment [4] and in experiment [5] was “Active” each time. The IC50 in experiment [1] turned out to be 1.7 µM. In addition, in experiment [6], the outcome was Active.

In the case of `COC(=O)c1c(-c2nc(NCCN3CCCC3)c3ccccc3n2)[nH]c2ccccc12`, the IC50 in experiment [1] was 6.1 µM.

Turning to `CC(=O)c1c(-c2nc(NCCCN(C)C)c3ccccc3n2)[nH]c2ccccc12`, the IC50 in experiment [1] is over 10 µM.

On to `O=Cc1c(-c2nc(NCCc3ccc(C(F)(F)F)cc3)c3ccccc3n2)[nH]c2ccccc12`, for which, in experiment [1], the IC50 is 4.2 µM.

In the case of `O=Cc1c(-c2nc(NCCc3ccccc3)c3ccccc3n2)[nH]c2ccccc12`, the inhibition entry in experiment [4] and in experiment [5] was “Active” in each case. In experiment [1], the IC50 turned out to be 0.8 µM. For the same molecule, the outcome in experiment [6] was inactive.

For `O=Cc1c(-c2nc(NC(C3CC3)C3CC3)c3ccccc3n2)[nH]c2ccccc12`, the IC50 in experiment [1] is 6 µM.
